# Assay results published in paper PMC6010082, “Synthesis and in vitro antiproliferative and antibacterial activity of new thiazolidine-2,4-dione derivatives” (Journal of Enzyme Inhibition and Medicinal Chemistry, 2017).
# Key:
# [1] = test system: Staphylococcus aureus ATCC 25923; assay: Broth microdilution MIC, S. aureus ATCC 25923; assay type: cell-based; conditions: 35 °C; for MIC: Staphylococcus aureus, ATCC25923, 18 h, read-out: Minimal inhibitory concentration MIC, Staphylococcus aureus 25923
# Description: (§1) Newly synthesised compounds’ antibacterial activities were tested in vitro against six aerobic bacteria reference strains: three Gram-positive (Staphylococcus aureus ATCC 25923, methicillin-resistant S. aureus MIKROBANK 14.001 reference strain from National Medicines Institute in Warsaw, and Staphylococcus epidermidis ATCC 12228) and three Gram-negative (Escherichia coli ATCC 25922, Proteus mirabilis ATCC 12453, and Pseudomonas aeruginosa ATCC 9027).
# (§2) Bacterial cell suspensions equivalent to 0.5 McFarland (1.5 × 10^8 CFU/ml) were prepared in 0.85% sterile saline. Tested compounds’ stock solutions (50 mg/ml) were dissolved in dimethyl sulphoxide (DMSO).
# (§3) Bacteria strain susceptibility to tested agents was determined by broth microdilution method. Broth microdilution method was carried out in accordance with Clinical and Laboratory Standards Institute recommendations and was used as reference method. Mueller–Hinton broth containing two-fold dilutions of the tested substances (at concentrations ranging from 3.91 to 1000 µg/ml) was used to determine their minimal inhibitory concentration (MIC) which is the lowest concentration of an antibacterial that will inhibit the visible growth of a microorganism after 18 h of incubation). Mueller–Hinton broth is recommended as the medium of choice for susceptibility testing of commonly isolated, rapidly growing aerobic, or facultative organisms. Gentamicin (KRKA, Slovenia), an aminoglycoside antibiotic active against a wide range of human bacterial infections, mostly Gram-negative bacteria including Pseudomonas, Proteus, Serratia, and the Gram-positive Staphylococcus, was used as a control antibacterial agent (at concentration from 0.12 µg to 1000 µg).
# (§4) Tested compounds two-fold dilutions in Mueller–Hinton broth without bacteria were blank control wells (incubated on equal conditions). Polystyrene trays containing 96 wells were filled with serial two-fold Mueller–Hinton broth dilutions of tested agents. Next, the broth was inoculated with 20 μl of 0.5 McFarland microbial suspension (previously diluted 1:10 by Mueller–Hinton broth). Total volume per each well was 200 μl. After incubation (at 35 °C for 18 h), bacterial cultures’ optical density was measured by microplate reader (BioTek Synergy H4 Hybrid Reader) at 600 nm. The MIC values were determined by the comparison of broth bacterial culture OD600 containing tested concentrations of examined substances to blank control wells.
# [2] = test system: methicillin-resistant S. aureus MIKROBANK 14.001; assay: Broth microdilution MIC, methicillin-resistant S. aureus; assay type: cell-based, Staphylococcus aureus; conditions: methicillin-resistant strain, 18 h, 35 °C; for MIC: Staphylococcus aureus, read-out: Minimal inhibitory concentration MIC, Staphylococcus aureus MIKROBANK 14.001
# Description: as §1, §2, §3, §4
# [3] = test system: Staphylococcus epidermidis ATCC 12228; assay: Broth microdilution MIC, S. epidermidis ATCC 12228; assay type: cell-based; conditions: 35 °C; for MIC: Staphylococcus epidermidis, ATCC12228, 18 h, read-out: Minimal inhibitory concentration MIC, Staphylococcus epidermidis 12228
# Description: as §1, §2, §3, §4
# [4] = test system: human breast adenocarcinoma (MCF-7); assay: MTT antiproliferative assay, MCF-7 cells; assay type: cell-based; conditions: for IC50: Homo sapiens, MCF7, MCF-7 cells, MTT, 48 h exposure, read-out: IC50 [µg/ml] ± SEM, MCF-7; for SI [IC50BJ/IC50], MCF-7: safety index = IC50 normal cells (BJ)/IC50 MCF-7
# Description: (§5) The experiment was carried out using normal human skin fibroblasts (BJ) and tumour cell lines: human lung carcinoma (A549), human hepatocellular carcinoma (HepG2), and human breast adenocarcinoma (MCF-7). All cell lines were obtained from ATCC (American Type Culture Collection, England, UK) and cultured in the appropriate, recommended by ATCC, culture medium, additionally supplemented with 10% foetal bovine serum and antibiotics: 100 U/ml penicillin and 100 µg/ml streptomycin. The cells were maintained at 37 °C in a humidified atmosphere of 5% CO2 and 95% air. Antiproliferative activity of the new compounds was assessed by, commonly used for this purpose, colorimetric MTT assay. Cells with active mitochondrial dehydrogenases reduced intracellularly the tetrazolium dye into purple formazan, which is proportional to the number of viable cells. The cells were seeded in 96-multiwell plates in 100 μl of the appropriate complete culture medium at a concentration of 7 × 10^3 cells/well in the case of BJ cells (normal fibroblasts), 1 × 10^4 cells/well in the case of A549 cells (lung cancer), 1.5 × 10^4 cells/well in the case of HepG2 cells (liver cancer), and 2 × 10^4 cells/well in the case of MCF-7 cells (breast cancer) so as to obtain 60–70% confluent culture after 24 h of incubation at 37 °C – the cells are then in the log (logarithmic) phase, during a period of active proliferation, but still have an unoccupied space to divide. Afterwards, the culture medium was discarded and replaced with 100 µl of different concentrations of new tested compounds and reference antiproliferative agent: irinotecan. The stock solutions of the compounds were prepared in DMSO, and solvent control was being tested concurrently to exclude toxicity attributed to DMSO. Ten serial two-fold dilutions using culture medium were performed to prepare different concentrations of the tested compounds, and the highest tested concentration was 200 µg/ml. Untreated cells (maintained in the complete culture medium) served as a negative control. After exposing cells for 48 h to the tested derivatives, the MTT assay was performed as described earlier. Three independent experiments (n = 3) were performed in a quadruplicate. The obtained data were analysed using GraphPad Prism 5, version 5.03 software (La Jolla, CA). […] Moreover, safety index (SI) was calculated using the following formula: SI=IC50normal cells (BJ)/IC50cancer cells
# [5] = test system: normal human skin fibroblasts (BJ); assay: MTT assay, normal fibroblasts BJ; assay type: cell-based; conditions: Skin fibroblast, 48 h exposure, read-out: IC50 [µg/ml] ± SEM, BJ
# Description: as §5
# [6] = test system: human hepatocellular carcinoma (HepG2); assay: MTT antiproliferative assay, HepG2 cells; assay type: cell-based; conditions: for IC50: Homo sapiens, HepG2 cells, MTT, 48 h exposure, read-out: IC50 [µg/ml] ± SEM, HepG2; for SI [IC50BJ/IC50], HepG2: safety index = IC50 normal cells (BJ)/IC50 HepG2
# Description: as §5
# [7] = test system: human lung carcinoma (A549); assay: MTT antiproliferative assay, A549 cells; assay type: cell-based; conditions: for IC50: Homo sapiens, A549 cells, MTT, 48 h exposure, read-out: IC50 [µg/ml] ± SEM, A549; for SI [IC50BJ/IC50], A549: safety index = IC50 normal cells (BJ)/IC50 A549
# Description: as §5
MIC [1],MIC [2],MIC [3],melting point,Compound,IC50 [5],further results
500 µg/mL,500 µg/mL,500 µg/mL,244 to 245 °C,"O=C(CC1SC(=O)NC1=O)Oc1cccc(C=NNC(=O)c2cccc(Cl)c2)c1 (stereo not drawn) [Compound 12, 3-{[2-(3-Chlorobenzoyl)hydrazinylidene]methyl}phenyl (2,4-dioxo-1,3-thiazolidin-5-yl)acetate]",,
500 µg/mL,500 µg/mL,500 µg/mL,198 to 200 °C,"O=C(CC1SC(=O)NC1=O)Oc1cccc(C=NNC(=O)c2ccc(Cl)cc2Cl)c1 (stereo not drawn) [Compound 13, 3-{[2-(2,4-Dichlorobenzoyl)hydrazinylidene]methyl}phenyl (2,4-dioxo-1,3-thiazolidin-5-yl)acetate]",,
,,,215 to 216 °C,"O=C(CC1SC(=O)NC1=O)Oc1ccc(C=NNC(=O)c2cccc(Cl)c2)cc1 (stereo not drawn) [Compound 14, 4-{[2-(3-Chlorobenzoyl)hydrazinylidene]methyl}phenyl (2,4-dioxo-1,3-thiazolidin-5-yl)acetate]",,
500 µg/mL,500 µg/mL,500 µg/mL,196 to 198 °C,"O=C(CC1SC(=O)NC1=O)Oc1ccc(C=NNC(=O)c2ccc(Cl)cc2Cl)cc1 (stereo not drawn) [Compound 15, 4-{[2-(2,4-Dichlorobenzoyl)hydrazinylidene]methyl}phenyl (2,4-dioxo-1,3-thiazolidin-5-yl)acetate]",,
,,,220 to 222 °C,"COc1cc(C=NNC(=O)c2cccc(Cl)c2)ccc1OC(=O)CC1SC(=O)NC1=O (stereo not drawn) [Compound 16, 4-{[2-(3-Chlorobenzoyl)hydrazinylidene]methyl}-2-methoxyphenyl (2,4-dioxo-1,3-thiazolidin-5-yl)acetate]",163.3 ± 1.34 µg/mL,"IC50 [4]: 117 ± 1.23 µg/mL; SI [IC50BJ/IC50], MCF-7 [4]: 1.39"
250 µg/mL,250 µg/mL,500 µg/mL,186 to 188 °C,"COc1cc(C=NNC(=O)c2ccc(Cl)cc2Cl)ccc1OC(=O)CC1SC(=O)NC1=O (stereo not drawn) [Compound 17, 4-{[2-(2,4-Dichlorobenzoyl)hydrazinylidene]methyl}-2-methoxyphenyl (2,4-dioxo-1,3-thiazolidin-5-yl)acetate]",,
,,,282 to 283 °C,"O=C(C=C1SC(=O)NC1=O)Oc1cccc(C=NNC(=O)c2cccc(Cl)c2)c1 [Compound 19, 3-{[2-(3-Chlorobenzoyl)hydrazinylidene]methyl}phenyl (2,4-dioxo-1,3-thiazolidin-5-ylidene)acetate]",,
,,,278 to 279 °C,"O=C(C=C1SC(=O)NC1=O)Oc1ccc(C=NNC(=O)c2cccc(Cl)c2)cc1 [Compound 20, 4-{[2-(3-Chlorobenzoyl)hydrazinylidene]methyl}phenyl (2,4-dioxo-1,3-thiazolidin-5-ylidene)acetate]",11.3 ± 1.05 µg/mL,"IC50 [6]: 27 ± 1.02 µg/mL; SI [IC50BJ/IC50], HepG2 [6]: 0.42"
,,,246 to 248 °C,"COc1cc(C=NNC(=O)c2cccc(Cl)c2)ccc1OC(=O)C=C1SC(=O)NC1=O [Compound 21, 4-{[2-(3-Chlorobenzoyl)hydrazinylidene]methyl}-2-methoxyphenyl (2,4-dioxo-1,3-thiazolidin-5-ylidene)acetate]",31.4 ± 1.08 µg/mL,"IC50 [6]: 48.4 ± 1.02 µg/mL; SI [IC50BJ/IC50], HepG2 [6]: 0.65; IC50 [4]: 124 ± 1.63 µg/mL; SI [IC50BJ/IC50], MCF-7 [4]: 0.25"
,,,209 to 211 °C,"O=C(CC1SC(=O)NC1=O)Oc1cccc(C=NNC(=S)Nc2ccccc2)c1 (stereo not drawn) [Compound 22, 3-{[2-(Phenylcarbamothioyl)hydrazinylidene]methyl}phenyl (2,4-dioxo-1,3-thiazolidin-5-yl)acetate]",81.6 ± 1.11 µg/mL,"IC50 [7]: 57.3 ± 1.19 µg/mL; SI [IC50BJ/IC50], A549 [7]: 1.43; IC50 [6]: 48.3 ± 1.07 µg/mL; SI [IC50BJ/IC50], HepG2 [6]: 1.69; IC50 [4]: 72 ± 1.1 µg/mL; SI [IC50BJ/IC50], MCF-7 [4]: 1.13"
250 µg/mL,250 µg/mL,250 µg/mL,159 to 162 °C,"O=C(CC1SC(=O)NC1=O)Oc1ccc(C=NNC(=S)Nc2ccccc2)cc1 (stereo not drawn) [Compound 25, 4-{[2-(Phenylcarbamothioyl)hydrazinylidene]methyl}phenyl (2,4-dioxo-1,3-thiazolidin-5-yl)acetate]",,
,,,182 to 184 °C,"COc1cc(C=NNC(=S)Nc2ccccc2)ccc1OC(=O)CC1SC(=O)NC1=O (stereo not drawn) [Compound 26, 2-Methoxy-4-{[2-(phenylcarbamothioyl)hydrazinylidene]methyl}phenyl (2,4-dioxo-1,3-thiazolidin-5-yl)acetate]",,
125 µg/mL,125 µg/mL,125 µg/mL,199 to 202 °C,"O=C(C=C1SC(=O)NC1=O)Oc1ccc(C=NNC(=S)Nc2ccccc2)cc1 [Compound 27, 4-{[2-(Phenylcarbamothioyl)hydrazinylidene]methyl}phenyl (2,4-dioxo-1,3-thiazolidin-5-ylidene)acetate]",,"Minimal inhibitory concentration MIC, Staphylococcus aureus 25923 ([1]; 18 h): 125 µg/mL; Minimal inhibitory concentration MIC, Staphylococcus aureus MIKROBANK 14.001 [2]: 125 µg/mL; Minimal inhibitory concentration MIC, Staphylococcus epidermidis 12228 ([3]; 18 h): 125 µg/mL"
125 µg/mL,125 µg/mL,125 µg/mL,186 to 187 °C,"COc1cc(C=NNC(=S)Nc2ccccc2)ccc1OC(=O)C=C1SC(=O)NC1=O [Compound 28, 2-Methoxy-4-{[2-(phenylcarbamothioyl)hydrazinylidene]methyl}phenyl (2,4-dioxo-1,3-thiazolidin-5-ylidene)acetate]",,
,,,,"CCc1c2c(nc3ccc(OC(=O)N4CCC(N5CCCCC5)CC4)cc13)-c1cc3c(c(=O)n1C2)COC(=O)[C@]3(O)CC [Irinotecan, irinotecan, reference compound]",38.7 ± 1.37 µg/mL,"IC50 [7]: 39.7 ± 1.2 µg/mL; SI [IC50BJ/IC50], A549 [7]: 0.97; IC50 [6]: 14.8 ± 1.24 µg/mL; SI [IC50BJ/IC50], HepG2 [6]: 2.62; IC50 [4]: 21.1 ± 1.23 µg/mL; SI [IC50BJ/IC50], MCF-7 [4]: 1.84"
